Laboratory results reported in patent US20080220078A1, “Pharmaceutical Formulations” (Vectura Limited, priority 2004, published 2008).
Values joined by “and” are separate entries in the source; they are usually repeats but may differ in a detail not shown here. Equal entries are not always repeated.

Assays:
Format in all cases: physicochemical
[1] = Density Measurements (poured and tapped density)
Description: Approximately 5 g of material was placed in a measuring cylinder and the volume noted. The poured density was calculated. The measuring cylinder was tapped 100 times and the volume noted. Tapping was repeated to constant volume and the tapped density calculated. The equipment used was a […] Volumeter STA […].

[2] = XPS surface analysis of powders
From the text: The aim of the analysis is to identify the presence of magnesium stearate on the surface of a model of a co-micronised active agent. […] The aim was to show the contrast in surface coating efficiency. The model material, representing the micronised active agent particles, was micronised lactose.
The powders have been analyzed using both TOF-SIMS and XPS. TOF-SIMS provides a mass spectrum of the outermost 1 nm of the surface, and is used here to asses whether the magnesium stearate coverage of the lactose is complete or in patches. XPS provides a spectrum representative of the outermost 10 nm of the surface of the sample and is used here in comparison to the TOF-SIMS data to assess the depth of coverage of the magnesium stearate on the lactose surface.
XPS is a surface analytical technique that can quantify the amount of different chemical species in the outermost 10 nm of a surface. In the simplest form of analysis, XPS measures the relative amount of each element present. Quantitative elemental identification can be achieved down to 1 atom in 1000. AU elements present can be detected with the exception of hydrogen. Elemental analysis may be essential in determining the amount of a surface contaminant or to quantify any surface species with a unique elemental type.

[3] = Zeta potential (Zetasizer 3000HS, in cyclohexane); conditions: average of 10 measurements
Description: In addition, the powders were studied using the Zetasizer 3000HS instrument (Malvern Instruments Ltd, UK.) Each sample was tested in cyclohexane, and zeta potential measurements were obtained. Zetasizer measures the zeta potential. This is a measure of the electric potential on a particle in suspension in the hydrodynamic plane of shear. The results are summarized as follows: Each result is an average of 10 measurements.

[4] = single measurements (Measurement 1, Measurement 2)

| Number of Taps to Constant Volume ([1]; Stampf Volumeter STA V2003) | Poured Density ([1]; approximately 5 g powder in measuring cylinder) [g/ml] | Tapped Density ([1]; tapped to constant volume) [g/mL] | Area % of C 1s Spectral Envelope, C—C ([2]; Mean) [%] | Area % of C 1s Spectral Envelope, C—O ([2]; Mean) [%] | Area % of C 1s Spectral Envelope, O—C—O ([2]; Mean) [%] | Area % of C 1s Spectral Envelope, O—C═O ([2]; Mean) [%] | Relative Atomic Percentage Composition, C ([2]; Mean) [%] | Relative Atomic Percentage Composition, Mg ([2]; Mean) [%] | Relative Atomic Percentage Composition, O ([2]; Mean) [%] | Area % of C 1s Spectral Envelope, C—C [2, 4] | Area % of C 1s Spectral Envelope, C—O [2, 4] | Area % of C 1s Spectral Envelope, O—C—O [2, 4] | Area % of C 1s Spectral Envelope, O—C═O [2, 4] | Relative Atomic Percentage Composition, C [2, 4] | Relative Atomic Percentage Composition, O [2, 4] | Zeta Potential [3] [mV] | Compound |
| --- | --- | --- | --- | --- | --- | --- | --- | --- | --- | --- | --- | --- | --- | --- | --- | --- | --- |
| 200 | 0.19 | 0.24 | – | – | – | – | – | – | – | – | – | – | – | – | – | – | Salbutamol sulphate |
| – | – | – | 5.5 | 64.3 | 20.0 | 8.7 | 54.9 | <0.1 | 45.1 | 6.4% and 4.4% | 70.9% and 57.8% | 18.0% and 22.0% | 4.7% and 12.8% | 54.47% and 55.29% | 45.43% and 44.71% | 35.5 | OC[C@H]1O[C@@H](O[C@H]2[C@H](O)[C@@H](O)C(O)O[C@@H]2CO)[C@H](O)[C@@H](O)[C@H]1O (some centres unmarked) [Lactose] |
